# Results reported in patent US20040033251A1, “Active agent delivery system including a polyurethane, medical device, and method” (Medtronic, Inc., priority 2002, published 2004).
# Assays:
# [1] = Dissolution of coumarin from PL75D/TP blend cap-coated shims in PBS; format: physicochemical; settings: PL75D/TP cap coats over TL/coumarin base coat, 37° C., FIG. 8
# Procedure: PL75D was dried at 70° C. at reduced pressure overnight. The dried pellets were compressed between two plates that were pre-heated to 230° C. and maintained for about 5 minutes. After the sample was cooled down to room temperature, it was placed in a vial filled with THF and stirred until dissolved (by visual observation). TP and TL were directly dissolved in THF by stirring the mixtures at room temperature. Coumarin was also dissolved in THF. The concentrations of all the solutions were about 1 wt-%. TL solution and coumarin solution were mixed at a weigh ratio of 1:1. This mixture is the base coating solution of a reservoir system. TP solution and PL75D solution were mixed at various weight ratios to make five different mixtures with the weight ratios of TP to PL75D being 100:0, 75:25, 50:50, 25:75, and 0:100. […]
# Dissolution of coumarin from the cap-coated shims was conducted by placing the coated shims in glass vials that contained phosphate buffered saline solution (PBS, potassium phosphate monobasic (NF tested), 0.144 grams per liter (g/L), sodium chloride (USP tested), 9 g/L, and sodium phosphate dibasic (USP tested) 0.795 g/L, pH=7.0 to 7.2 at 37° C., purchased from HyClone, Logan, Utah). […] The concentration of coumarin in all these solutions was measured with a liquid chromatography (HP 1090) that was equipped with a UV detector. […]
# [2] = Merck Index 13 edit.; cited from earlier work
compound,measurement,setting,value
O=c1ccc2ccccc2o1 [Coumarin],Release rate versus cap coat composition,[1],release much faster from a 100% PL75D coated shim than that from 100% TP coated shim
same,Volume of cold water in which one gram dissolves,[2],400 mL
